# Experimental data reported in publication PMC8115619, “Generation of a chemical genetic model for JAK3” (Scientific Reports, 2021).
# pIC50: −log10 of the molar value.
# Key:
# [1] = test system: IL-4 induced STAT6 phosphorylation in BMDMs from JAK3 Cys905Ser knockin mice; test: IL-4 induced STAT6 phosphorylation in JAK3 Cys905Ser knockin BMDMs (immunoblot); type: cell-based, mouse; conditions: Mus musculus, BMDM, 0.5 h; 10 ng/ml IL-4 30 min, pSTAT6 Tyr641 immunoblot, two independent experiments
# Description: (§1) Figure 3 Effect of JAK3 inhibitors on IL-4 induced STAT6 phosphorylation. BMDMs were isolated from wild type and JAK3 Cys905Ser knockin mice. Cells were incubated with the indicated concentrations of inhibitor before stimulation for 30 min with 10 ng/ml IL-4. Cells were lysed and the levels of STAT6 phosphorylated at Tyr641 were assessed by immunoblotting. Levels of ERK1/2 were determined as a loading control.
# (§2) Bone marrow derived macrophages (BMDMs) were cultured as described. Briefly, bone marrow was flushed in PBS from the femurs and tibias of mice. Cells were cultured on bacterial grade plastic for 7 days at 37 °C, 5% CO2. Cells were then detached using Versene (Gibco), re-plated on tissue culture plastic in BMDM media (in DMEM supplemented with 10% heat inactivated FBS (Labtech), 2 mM L-glutamine, 100 U/ml penicillin G, 100 μg/ml streptomycin and 0.25 μg/ml amphotericin, 5 ng/ml M-CSF) and used within 48 h. Where indicated cells were stimulated with 10 ng/ml IL-4, 10 ng/ml GM-CSF, 10 ng/ml IL-10 or 10 ng/ml IFNβ. All cytokines were from PeproTech.
# (§3) Cells were lysed directly into SDS sample buffer and aliquots run on 10% polyacrylamide gels using standard methods. Proteins were transferred onto nitrocellulose membranes, and specific proteins were detected by immunoblotting. Antibodies against tyrosine phosphorylated STATs were from Cell Signaling Technology (phospho-STAT1 #9167, phospho-STAT3 #9131, phospho-STAT5 #4322 and phospho-STAT6 #9361). The total ERK1/2 antibody used as a loading control was also from cell Signaling Technology (#4695). HRP-conjugated secondary antibodies were obtained from Pierce. Bands were detected using Clarity ECL reagents from BioRad and imaged on a Licor Odyssey Fc system. Quantification was carried out using Licor Image Studio software. After correction for the ERK1/2 levels to account for loading differences, percentage inhibition was calculated relative to the IL-4 stimulated condition. IC50 values were calculated using the same methods as for the in vitro IC50 values.
# [2] = test system: IL-4 induced STAT6 phosphorylation in wild type BMDMs; test: IL-4 induced STAT6 phosphorylation in wild type BMDMs (immunoblot); type: cell-based; conditions: Mus musculus, BMDM, 0.5 h; 10 ng/ml IL-4 30 min, pSTAT6 Tyr641 immunoblot, two independent experiments
# Description: as §1, §2, §3
# [3] = test system: IL-4 induced STAT6 phosphorylation in wild type BMDMs; test: Inhibitor washout, IL-4 induced STAT6 phosphorylation, wild type BMDMs; type: cell-based, mouse; conditions: inhibitor 2 h, 0.5 μM Ruxolitinib
# Description: Covalent inhibitors would be predicted to have very slow off rates and therefore inhibition should remain even if the unbound inhibitors are washed out of the cells. To test this, cells were treated with a high concentration of inhibitor for 2 h before being washed 3 times in PBS and then incubated in media without inhibitor for 0.5 to 24 h. If the inhibitor acts via a non-covalent mechanism, inhibition would not be expected to remain following washout from the cells. Ruxolitinib is a non-covalent pan-JAK inhibitor that can inhibit multiple JAK-STAT pathways in macrophages. […] To confirm this was not the case, similar experiments were done in JAK3 Cys905Ser knockin cells. […] Similar experiments were also carried out with PF-06651600. […] As the level of inhibition was lower at 2 h post washout than 30 min the experiment was repeated to look at 4 and 24 h time points for the washout step.
# Figure 4 Effect of inhibitor washout on JAK3 inhibition. BMDMs were isolated from wild type and JAK3 Cys905Ser knockin mice. […] The macrophages were then either stimulated with 10 ng/ml IL-4 for 30 min or washed 3 times in PBS and then incubated in media without inhibitor for the indicated times. The cells were then stimulated with IL-4 for 30 min and STAT6 phosphorylation determined by immunoblotting using levels of ERK1/2 as a loading control.
# as §2, §3
Structure (SMILES),pIC50 [1],pIC50 [2],"block of IL-4 induced STAT6 phosphorylation without washout, wild type BMDMs ([3]; no washout, 10 μM TL6-144)","inhibition of IL-4 induced STAT6 phosphorylation after inhibitor washout, wild type BMDMs ([3]; washed 3 times in PBS, IL-4 30 min to 2 h after washout, 10 μM TL6-144, 100 μM PF-06651600)"
"CN(C)C(=O)/C(C#N)=C/c1ccc(-c2nc3cnc4[nH]ccc4c3n2C2CCCCC2)o1 [FM-381, reference compound]",6.05,6.74,–,–
N#CC[C@H](C1CCCC1)n1cc(-c2ncnc3[nH]ccc23)cn1 [Ruxolitinib],–,–,completely block,completely lost
